Key:
HCT116 cells [1] = test: Colony formation; format: cell-based, human; settings: 48 h treatment, then 14 days
Experimental: HCT116 cells were seeded in 6-well plates (1.5 × 10^3 cells/well). Various concentrations of compound 33a or 36b were added to the wells for 48 h. The culture medium was changed every 72 h, at the end of 14 days, cells were fixed with methanol for 30 min and stained with 0.1% crystal violet staining solution for 30 min at room temperature, then washed three times in PBS and allowed to dry. Photographs were then taken.

HCT116 cells [2] = test: CCK-8 anti-proliferation assay, HCT116; format: cell-based, human; settings: Homo sapiens, HCT-116, 48 h, CCK-8, 48 h, mean ± SD, three independent experiments
Experimental: (§1) Tumor cell anti-proliferation activities were determined by cell counting kit-8 (CCK-8) assay.
(§2) MCF-7, A375, and HeLa cells were cultured in DMEM, HCT116 cells were cultured in McCoy's 5A medium, and DU145 and CT26 were cultured in RPMI 1640 with 10% FBS, 1% penicillin-streptomycin solution (10,000 U/mL penicillin and 10,000 μg/mL streptomycin) at 37 °C under 5% CO2. The cells were seeded in 96-well plates (4 × 10^3 cells/well) overnight and then treated with various concentrations (1–50 μmol/L) of the compound. After 48 h, the cell viability was measured by CCK-8 assay. The absorbance of each well was measured using a microplate reader (Multiskan FC, Thermo Fisher Scientific, Massachusetts, USA) at 450 nm wavelength. Assays were performed in triplicate. Compound concentrations that inhibited cell growth by 50% (IC50) were calculated from the dose–response curves of each cell line. Data are mean ± SD values from three independent experiments.

[3] = test system: A375 (human malignant melanoma); test: CCK-8 anti-proliferation assay, A375; format: cell-based; settings: Homo sapiens, A-375; CCK-8, 48 h, mean ± SD
Experimental: (§3) To evaluate their spectrum of anti-proliferative activity, further CCK-8 assays were carried out with the selected compounds (5a/5b, 8a/8b, 33a/33b, and 36a/36b) on MCF-7 (human breast cancer), A375 (human malignant melanoma), DU145 (human prostate cancer), and CT26 (mouse colon cancer) cell lines. The selected compounds had moderate to potent antitumor activity on the four cell lines, indicating their broad spectrum of antitumor activity (Table 5).
as §2

c-MYC = c-MYC (Homo sapiens, UniProt P01106); test: Cellular thermal shift assay (CETSA); format: binding; design: HCT116 cells were lysed with mammalian protein extraction reagent (M-PER); endogenous in cells; host or cells: HCT116; settings: 40-70 °C
Experimental: In short, the lysates were incubated with 33a or 36b or DMSO for 30 min. The […] were divided equally and individually heated at different temperatures (40–70 °C) for 3 min and then cooled on ice. After freeze-thawing twice with liquid nitrogen, the supernatant was centrifuged, collected, and boiled in a loading buffer. c-MYC protein was analyzed by Western blot.

HCT116 cells [4] = test: Transwell invasion assay; format: cell-based, human; settings: 24 h
Experimental: A transwell chamber (24-well) (Corning, New York, USA) was coated with Matrigel (BD Biosciences, New Jersey, USA), and 1 × 10^5 cells per well were seeded in the upper chamber in serum-free medium and treated with defined doses of compound 33a or 36b. The complete medium was placed in the lower chamber. After 24 h, the cells penetrating through the pores were stained with 0.1% crystal violet solution and observed with a Leica DMIL fluorescence microscope (Leica Microsystems).

HCT116 cells [5] = test: Cell cycle assay (PI, flow cytometry); format: cell-based, human; settings: 48 h
Experimental: Cells were seeded in 6-well plates (5 × 10^5 cells/well). The following day, defined concentrations of compound 33a or 36b were added to the wells for 48 h at 37 °C with 5% CO2. The cells were collected and fixed in ice-cold 70% alcohol overnight. Then the cells were stained in propidium iodide (PI) dye for 15 min in the dark and the cell DNA contents were analyzed via flow cytometry (Becton, Dickinson Company, New Jersey, USA).

Acute toxicity assay = format: in vivo; settings: for Death rate: 10 mice; for Number of dead mice: of 5
Experimental: SPF BALB/c mice were divided into […] randomly (n = 10, 5 male, and 5 female) and injected intraperitoneally with defined dosages of compound 33a (90, 260, 350, 450, 600, and 800 mg/kg) or dilute (DMSO: castor oil: PBS = 1:2:7, v/v/v). The mice were observed continuously for 14 days after administration. The number of mortalities during the experiment was recorded, and the statistical result of the experimental endpoint was used to calculate LD50.

HCT116 cells [6] = test: Wound healing assay; format: cell-based, human; settings: 24 h
Experimental: HCT116 cells were seeded in 6-well plates (6 × 10^5 cells/well) to full confluence and then an artificial wound was created in the cell monolayer using a 200 μl pipette tip. Images of wound closure were captured at 0 and 24 h using a Leica DMIL fluorescence microscope (Leica Microsystems). The percentage of wound closure was calculated using Image J software.

HeLa cells = test: CCK-8 anti-proliferation assay, HeLa; format: cell-based, human; settings: Homo sapiens, HeLa, 48 h, CCK-8, 48 h, mean ± SD, three independent experiments
Experimental: as §1, §2

[7] = test system: DU145 (human prostate cancer); test: CCK-8 anti-proliferation assay, DU145; format: cell-based; settings: Homo sapiens, DU-145; CCK-8, 48 h, mean ± SD
Experimental: as §3, §2

Chain of c-MYC (P01106 whole entry): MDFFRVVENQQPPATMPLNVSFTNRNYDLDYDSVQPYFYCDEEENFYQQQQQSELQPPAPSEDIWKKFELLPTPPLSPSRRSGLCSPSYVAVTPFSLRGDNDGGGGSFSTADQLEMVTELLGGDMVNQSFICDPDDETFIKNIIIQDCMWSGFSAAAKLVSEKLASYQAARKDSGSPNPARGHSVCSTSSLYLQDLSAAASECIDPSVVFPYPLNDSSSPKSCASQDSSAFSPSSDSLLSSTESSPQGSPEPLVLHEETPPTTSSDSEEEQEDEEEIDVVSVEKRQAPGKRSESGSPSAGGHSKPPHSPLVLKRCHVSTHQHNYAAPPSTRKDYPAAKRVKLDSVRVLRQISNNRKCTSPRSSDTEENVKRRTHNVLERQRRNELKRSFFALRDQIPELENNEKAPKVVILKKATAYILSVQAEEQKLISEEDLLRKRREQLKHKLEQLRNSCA

CCOC(=O)[C@]1(n2cnc3c(N4CCCCC4)nc(F)nc32)CSC[C@H]1O (racemic) [33a]
colony formation (HCT116 cells [1]): reduce the colony formation number in a dose-dependent manner | IC50 (HCT116 cells [2]): 0.27 ± 0.01 µM | IC50 [3]: 2.34 ± 0.12 µM | thermal stability of c-MYC (c-MYC): increase the thermal stability of c-MYC in HCT116 cells from 40 to 70 °C | invasion (HCT116 cells [4]): distinctly reduced the number of HCT116 cells passing through the matrix membrane | G2/M cells (HCT116 cells [5]): increased the percentage of G2/M cells in a dose-dependent manner | Death rate (Acute toxicity assay; 90 mg/kg i.p.): 0% | Number of dead mice (Acute toxicity assay; 90 mg/kg, ♀): 0 | Number of dead mice (Acute toxicity assay; 90 mg/kg, ♂): 0 | Death rate (Acute toxicity assay; 260 mg/kg i.p.): 0% | Number of dead mice (Acute toxicity assay; 260 mg/kg, ♀): 0 | Number of dead mice (Acute toxicity assay; 260 mg/kg, ♂): 0 | Death rate (Acute toxicity assay; 350 mg/kg i.p.): 10% | Number of dead mice (Acute toxicity assay; 350 mg/kg, ♀): 1 | Number of dead mice (Acute toxicity assay; 350 mg/kg, ♂): 0 | Death rate (Acute toxicity assay; 450 mg/kg i.p.): 20% | Number of dead mice (Acute toxicity assay; 450 mg/kg, ♀): 2 | Number of dead mice (Acute toxicity assay; 450 mg/kg, ♂): 0 | Death rate (Acute toxicity assay; 600 mg/kg i.p.): 60% | Number of dead mice (Acute toxicity assay; 600 mg/kg, ♀): 3 | Number of dead mice (Acute toxicity assay; 600 mg/kg, ♂): 3 | Death rate (Acute toxicity assay; 800 mg/kg i.p.): 100% | Number of dead mice (Acute toxicity assay; 800 mg/kg, ♀): 5 | Number of dead mice (Acute toxicity assay; 800 mg/kg, ♂): 5 | LD50 at 14 days (Acute toxicity assay; both sexes, mouse, in vivo, ip, BALB/c mice, intraperitoneal, observed 14 days): 553 mg/kg | wound healing (HCT116 cells [6]): significantly delay the wound healing ability of HCT116 cells in a dose-dependent manner | IC50 (HeLa cells): 8.73 ± 1.02 µM | IC50 [7]: 21.1 ± 1.21 µM

CCCSc1nc(F)nc2c1ncn2[C@@]1(C(=O)OCC)CSC[C@@H]1O (relative stereo) [36b]
colony formation (HCT116 cells [1]): reduce the colony formation number in a dose-dependent manner | IC50 (HCT116 cells [2]): 0.49 ± 0.08 µM | IC50 [3]: 1.14 ± 0.17 µM | thermal stability of c-MYC (c-MYC): increase the thermal stability of c-MYC in HCT116 cells from 40 to 70 °C | invasion (HCT116 cells [4]): distinctly reduced the number of HCT116 cells passing through the matrix membrane | G2/M cells (HCT116 cells [5]): increased the percentage of G2/M cells in a dose-dependent manner | wound healing (HCT116 cells [6]): significantly delay the wound healing ability of HCT116 cells in a dose-dependent manner | IC50 (HeLa cells): 6.35 ± 1.08 µM | IC50 [7]: 6.59 ± 1.36 µM

From PMC12278645, “Design, synthesis, and antitumor activity of novel thioheterocyclic nucleoside derivatives by suppressing the c-MYC pathway” (Acta Pharmaceutica Sinica. B, 2025)
